Data: US20040047894A1, “Preparation for improved dietary utilisation” (priority 2001, published 2004)

Experiments:
ICR mice [1] = conditions: 1.0% calendic acid (ethyl ester) in feed, six weeks
Procedure: 5-6-week-old male and female ICR mice were obtained from Charles River. 18 animals (9 m/w) were randomly assigned to each experimental group. The animals were raised in groups of 3 animals at 20° C. in a 12-hour light/dark cycle. […] It comprised the following components: sucrose, casein, corn starch, DL-methionin, 5.5% of a mixture of vegetable oils (so that the feed comprised 0.6% linolenic acid and 3% linoleic acid of the total lipids), mineral and vitamin mix and Ethoxyquin (0.1 g/kg). In the experimental feed, the amount of vegetable oils was replaced by the corresponding amount of calendic acid. Calendic acid was present here as the ethyl ester and was obtained from calendula oil (BiRo, Sommerschenburg, Germany).
After a one-week adaptation period on control feed, a six-week experiment was carried out. Body weight and feed intake were measured weekly. At the end of the study the animals were killed and viscera and organs such as liver, heart and lungs were removed. The empty carcasses were frozen in liquid nitrogen, homogenized, and the contents of fat, protein and ash were determined by standard methods.

ICR mice [2] = assay: Four-week feeding experiment: bodyweight, feed intake and feed utilization; assay type: in vivo; conditions: four weeks

CCCCC\C=C/C=C/C=C/CCCCCCC(=O)O [Calendic acid, calendic acid]
changes in body weight versus control group (ICR mice [1]; ICR mice): comparable | fat content in the experimental animals (ICR mice [1]; ICR mice, effect greater in male than in female animals): significantly decreased the fat content | Body fat content (in % of body composition), female animals (ICR mice [1]; female ICR mice, control 10.3% fat): 9.5% fat | Body fat content (in % of body composition), male animals (ICR mice [1]; male ICR mice, control 12.2% fat): 8.0% fat | feed intake, male animals (ICR mice [2]; male ICR mice, calendula oil 0.5-2.0% in feed): dose-dependent effect towards reduced feed intake | feed utilization, male animals (ICR mice [2]; male ICR mice, calendula oil 0.5-2.0% in feed, dose-dependent, FIG. 3): significantly improved | weight gain (ICR mice [2]; male and female ICR mice, calendula oil 0.5-2.0% in feed, FIG. 1): without affecting weight gain | feed intake (ICR mice [2]; male and female ICR mice, corn oil in feed replaced by crude calendula oil 0.5, 1.0 or 2.0% (approx. 62% calendic acid as triglyceride), FIG. 2): reduced feed intake
